For data set [1] the following is noted: cited from earlier work.
For data set [2] the following is noted: Class IV indicates low solubility and low permeability API; cited from earlier work.
The conditions of data set [3]: marketed nanoparticulate formulation; cited from earlier work.
For data set [4] the following is noted: for weight loss during the initial desorption cycle: initial desorption scan 50-0.5% RH; for solid form of the product obtained after the GVS analysis (XRPD): XRPD after completion of the GVS isotherm. On the procedure:
Gravimetric Vapour Isotherm (GVS) Analysis: Sorption isotherms were obtained using a Hiden Isochema moisture sorption analyser (model IGAsorp), controlled by IGAsorp Systems Software V6.50.48. The sample was maintained at a constant temperature (25° C.) by the instrument controls. The humidity was controlled by mixing streams of dry and wet nitrogen, with a total flow of 250 ml·min^−1. The instrument was verified for relative humidity content by measuring three calibrated Rotronic salt solutions (10-50-80%). The weight change of the sample was monitored as a function of humidity by a microbalance (accuracy +/−0.005 mg). A defined amount of sample was placed in a tared mesh stainless steel basket under ambient conditions. The sample was loaded at 40% RH and 25° C. (typical room conditions). The sample was initially held at 50% RH for ˜80 minutes before the initial desorption cycle was commenced. A moisture sorption isotherm was acquired as outlined in Table 1 (2 scans giving 1 complete cycle). The standard isotherm was collected at a constant temperature (25° C.) and at 10% RH intervals over a 0.5-90% range (80 minutes for each humidity level). Data analysis was undertaken in Microsoft Excel.
The sample was recovered after completion of the isotherm and re-analysed by XRPD.

Here are results for three molecules from patent US9532993B2, “Aprepitant L-proline solvates—compositions and cocrystals” (priority 2011, dated 2017).

Molecules are shown by their SMILES.

With `C[C@@H](O[C@H]1OCCN(Cc2nc(=O)[nH][nH]2)[C@H]1c1ccc(F)cc1)c1cc(C(F)(F)F)cc(C(F)(F)F)c1` [Aprepitant], the solubility in acetonitrile entry in data set [1] (acetonitrile) is “slightly soluble”. For the same molecule, the solubility in ethanol entry in data set [1] (ethanol) is on record as “sparingly soluble”. Also, the “solubility in isopropyl acetate” value in data set [1] (isopropyl acetate) was “sparingly soluble”. Moreover, in data set [1] (water), the solubility in water entry is “practically insoluble”. Also, the BCS class result in data set [2] is recorded as “Class IV”. Further, in data set [3], the mean absolute bioavailability is reported as 60-65%.

Turning to `CCO.C[C@@H](O[C@H]1OCCN(Cc2n[nH]c(=O)[nH]2)[C@H]1c1ccc(F)cc1)c1cc(C(F)(F)F)cc(C(F)(F)F)c1.O=C(O)[C@@H]1CCCN1`, the “weight loss during the initial desorption cycle” value in data set [4] (GVS, 25° C.) turned out to be 4.3%. In addition, the “hygroscopicity of the obtained product” value in data set [4] (GVS, 25° C., product obtained after initial desorption) is recorded as “not hygroscopic”. For the same molecule, the “water adsorbed by the obtained product at high relative humidity” value in data set [4] (GVS, 25° C., product obtained after initial desorption (converted to H2O cocrystal), high relative humidity) was determined as 0.5%. Besides, in data set [4], the “solid form of the product obtained after the GVS analysis (XRPD)” value was “entirely the 1:1:1 aprepitant L-proline H2O cocrystal”.

Take `CCCO.C[C@@H](O[C@H]1OCCN(Cc2n[nH]c(=O)[nH]2)[C@H]1c1ccc(F)cc1)c1cc(C(F)(F)F)cc(C(F)(F)F)c1.O=C(O)[C@@H]1CCCN1`: in data set [4] (GVS, 25° C., 0.5-90% RH), the “weight loss over the total desorption-adsorption-desorption cycles” value stood at 6.3%. The “weight loss during the initial desorption cycle” value in data set [4] (GVS, 25° C.) was determined as 4.4%. The “solid form of the product obtained after the GVS analysis (XRPD)” value in data set [4] is given as “entirely the 1:1:1 aprepitant L-proline H2O cocrystal”.
